Assay results taken from publication PMC4998957 (Nature, 2016).

Columns and labels:
CAHexamer = CAHexamer (Human immunodeficiency virus type 1 group M subtype B, UniProt P12493, A146C/E177C/M317A/W316A); format: binding, HIV-1
[1] = target: CAHexamer (disulfide-stabilised HIV-1 capsid hexamer) (Human immunodeficiency virus type 1 group M subtype B, UniProt P12493, A146C/E177C/M317A/W316A); format: binding
[2] = target: disulfide-stabilised HIV-1 capsid protein hexamer (CA_(Hexamer)) R18G (HIV-1); assay: cross-linking
HIV-1 capsid cores = assay: Endogenous reverse transcription; format: biochemical; settings: DNase I and RNase A 100 μg/ml, Benzonase 250 U/ml, 100 μM each dNTP, 16 h

## Nc1ccn([C@H]2C[C@H](O)[C@@H](COP(=O)(O)OP(=O)(O)OP(=O)(O)O)O2)c(=O)n1 [dCTP]
CAHexamer
  on-rate (kon): > 2e+08 M⁻¹ s⁻¹
CAHexamer; equivalent of the off-rate
  half life of complex: 0.058 s
CAHexamer; fluorescent dCTP displaced with excess unlabeled dCTP (20 µM)
  off-rate: > 12 s⁻¹

## Cc1cn([C@H]2C[C@H](O)[C@@H](COP(=O)(O)OP(=O)(O)OP(=O)(O)O)O2)c(=O)[nH]c1=O [dTTP]
[1]; 2 nM fluorescein-labelled dTTP, 1 mM inorganic phosphate
  effect of 1 mM (physiological) inorganic phosphate on hexamer binding: no significant effect
[1]; titration of CAHexamer into labelled nucleotides
  comparison of affinity of ribose and deoxyribose nucleoside triphosphates: same affinity

## disulfide-stabilised HIV-1 capsid protein hexamer (CA_(Hexamer)) R18G (natural protein)
[2]
  stoichiometry N: 6

B1: RNase A: nuclease (protein, UniProt P61823 27-150, looked up)
Ribonuclease pancreatic: KETAAAKFERQHMDSSTSAASSSNYCNQMMKSRNLTKDRCKPVNTFVHESLADVQAVCSQKNVACKNGQTNCYQSYSTMSITDCRETGSSKYPNCAYKTTQANKHIIVACEGNPYVPVHFDASV
HIV-1 capsid cores
  effect of nucleases on encapsidated reverse transcription: failed to prevent
